Reference: patent US11572399B2, “Long-acting GIP peptide analogues” (University of Copenhagen, priority 2017, dated 2023)
Numbered stars: 1 amine (or outer) side, 2 acyl side, 3 side chain; on linkers, the order of the positions; unused ones are H or OH. Side chains are listed from the residue outwards. Peptide text beside a SMILES is read from it. * marks the point of attachment. γGlu = O=C(O)[C@H](CCC(=O)[*:2])N[*:1]; Palmitoyl = CCCCCCCCCCCCCCCC(=O)*; AEEA = NCCOCCOCC(=O)O; GABA = NCCCC(=O)O

Key:
human GIP receptor [1] = molecular target: T1, human GIP receptor (Homo sapiens, UniProt P48546); experiment: cAMP accumulation assay, antagonism of a GIP-mediated cAMP response (50-80% of max); assay type: cell-based; conditions: for Fold change from GIP(3-30)NH2 (increase in potency): Table 5
T1 construct: host or cells: COS-7, transient transfection (calcium phosphate), cDNA in pCMV-Script
T1 sequence (P48546 22-466): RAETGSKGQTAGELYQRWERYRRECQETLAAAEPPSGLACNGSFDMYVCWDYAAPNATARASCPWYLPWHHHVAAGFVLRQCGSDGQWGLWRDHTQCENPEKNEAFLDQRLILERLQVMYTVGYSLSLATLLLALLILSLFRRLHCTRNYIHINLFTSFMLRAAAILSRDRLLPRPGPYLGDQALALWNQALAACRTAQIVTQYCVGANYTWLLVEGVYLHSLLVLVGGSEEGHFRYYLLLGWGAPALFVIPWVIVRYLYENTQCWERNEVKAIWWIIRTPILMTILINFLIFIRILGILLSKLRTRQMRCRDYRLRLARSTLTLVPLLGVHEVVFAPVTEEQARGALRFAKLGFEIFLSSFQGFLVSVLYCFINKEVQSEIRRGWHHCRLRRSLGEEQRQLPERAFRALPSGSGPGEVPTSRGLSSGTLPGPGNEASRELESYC
Protocol: The day after, the cells were washed twice with Hepes buffered saline (HBS) buffer and incubated with HBS and 1 mM 3-isobutyl-1-methylxanthine (IBMX) for 30 min at 37° C. […] The HitHunter™ cAMP XS assay (DiscoveRx) was carried out according to the manufacturer's instructions.

human GIP receptor [2] = molecular target: T1, human GIP receptor; experiment: cAMP accumulation assay, agonism (ligand alone); assay type: cell-based; conditions: COS-7 cells, Table 1; for Emax: COS-7, intrinsic cAMP activity
human GIP receptor [3] = molecular target: T1, human GIP receptor; experiment: 125I-human GIP competition binding assay, in the presence and absence of 2% HSA;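 further: nonspecific binding taken as radioligand bound to untransfected cells, IC50 obtained from nonlinear regression fits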
Protocol: Transient transfection of the COS-7 cells for cAMP accumulation and competition binding was performed using the calcium phosphate precipitation method with the addition of chloroquine^46-47.
Transient transfected COS-7 cells expressing the human GIP receptor were seeded in clear 96-well plates the day after transfection using a number of cells/well that obtained 5-10% specific binding of the added radioactive ligand. The following day, cells were assayed by competition binding for 3 h at 4° C. using 15-40 pM 125 I-human GIP as well as increasing concentrations unlabeled ligand in 50 mM Hepes buffer (pH 7.2) in the presence and absence of 2% HSA. After incubation, the cells were washed twice in ice-cold binding buffer (+/−2% HSA) and lysed using 200 mM NaOH with 1% SDS for 30 min. Nonspecific binding was determined as the binding of radioactive ligand to untransfected cells.
IC50, EC50, and Ki values were determined by nonlinear regression. […] Ki values were based on the formula for one class of binding sites in homologous competition binding studies and the Cheng Prussoffs formula, respectively (DeBlasi et al., 1989). To determine the HSA binding potential, the fold change in affinity (as determined by IC50) was calculated as IC50 (plus HSA)/IC50 (minus HSA).

[4] = heterologous competition binding, transiently transfected COS-7 cells expressing the human GIP receptor, read-out: Binding

With `CCCCCCCCCCCCCCCC(=O)NCCOCCOCC(=O)N[C@@H](CCC(=O)NCCCC[C@H](NC(=O)[C@@H](NC(=O)[C@H](CCCCN)NC(=O)[C@H](CC(=O)O)NC(=O)[C@H](CCSC)NC(=O)[C@H](C)NC(=O)[C@@H](NC(=O)[C@H](CO)NC(=O)[C@H](Cc1ccc(O)cc1)NC(=O)[C@H](CC(=O)O)NC(=O)[C@H](CO)NC(=O)[C@@H](NC(=O)[C@H](Cc1ccccc1)NC(=O)[C@@H](NC(=O)CNC(=O)[C@@H](N)CCC(=O)O)[C@@H](C)O)[C@@H](C)CC)[C@@H](C)CC)[C@@H](C)CC)C(=O)N[C@@H](CCC(N)=O)C(=O)N[C@@H](CCC(N)=O)C(=O)N[C@@H](CC(=O)O)C(=O)N[C@@H](Cc1ccccc1)C(=O)N[C@H](C(=O)N[C@@H](CC(N)=O)C(=O)N[C@@H](Cc1c[nH]c2ccccc12)C(=O)N[C@@H](CC(C)C)C(=O)N[C@@H](CC(C)C)C(=O)N[C@@H](C)C(=O)N[C@@H](CCC(N)=O)C(=O)N[C@@H](CCCCN)C(N)=O)C(C)C)C(=O)O` [AT167, [hGIP(3-30)NH2[H18K]-C16/18+y-glutamic acid+8-amino-3,6-dioxaoctanoic acid]] (H-EGTFISDYSIAMDKIK([γGlu-AEEA-Palmitoyl])QQDFVNWLLAQK-NH2) the “Fold change from GIP(3-30)NH2 (increase in potency)” value (human GIP receptor [1]) was 14.8 fold.
`CCCCCCCCCCCCCCCC(=O)NCCCC[C@H](NC(=O)[C@H](CC(=O)O)NC(=O)[C@H](CCSC)NC(=O)[C@H](C)NC(=O)[C@@H](NC(=O)[C@H](CO)NC(=O)[C@H](Cc1ccc(O)cc1)NC(=O)[C@H](CC(=O)O)NC(=O)[C@H](CO)NC(=O)[C@@H](NC(=O)[C@H](Cc1ccccc1)NC(=O)[C@@H](NC(=O)CNC(=O)[C@@H](N)CCC(=O)O)[C@@H](C)O)[C@@H](C)CC)[C@@H](C)CC)C(=O)N[C@H](C(=O)N[C@@H](CCCCN)C(=O)N[C@@H](CCC(N)=O)C(=O)N[C@@H](CCC(N)=O)C(=O)N[C@@H](CC(=O)O)C(=O)N[C@@H](Cc1ccccc1)C(=O)N[C@H](C(=O)N[C@@H](CC(N)=O)C(=O)N[C@@H](Cc1c[nH]c2ccccc12)C(=O)N[C@@H](CC(C)C)C(=O)N[C@@H](CC(C)C)C(=O)N[C@@H](C)C(=O)N[C@@H](CCC(N)=O)C(=O)N[C@@H](CCCCN)C(N)=O)C(C)C)[C@@H](C)CC` [AT163, [hGIP(3-30)NH2[H18K]-C16/16]] (H-EGTFISDYSIAMDK(Palmitoyl)IKQQDFVNWLLAQK-NH2; N-terminus assumed) gave an Emax (human GIP receptor [2]) of 0% and an IC50 (human GIP receptor [3]; [4]) of 205 nM.
`CCCCCCCCCCCCCCCC(=O)NCCCC(=O)NCCCC[C@H](NC(=O)[C@@H](NC(=O)[C@H](CCCCN)NC(=O)[C@H](CC(=O)O)NC(=O)[C@H](CCSC)NC(=O)[C@H](C)NC(=O)[C@@H](NC(=O)[C@H](CO)NC(=O)[C@H](Cc1ccc(O)cc1)NC(=O)[C@H](CC(=O)O)NC(=O)[C@H](CO)NC(=O)[C@@H](NC(=O)[C@H](Cc1ccccc1)NC(=O)[C@@H](NC(=O)CNC(=O)[C@@H](N)CCC(=O)O)[C@@H](C)O)[C@@H](C)CC)[C@@H](C)CC)[C@@H](C)CC)C(=O)N[C@@H](CCC(N)=O)C(=O)N[C@@H](CCC(N)=O)C(=O)N[C@@H](CC(=O)O)C(=O)N[C@@H](Cc1ccccc1)C(=O)N[C@H](C(=O)N[C@@H](CC(N)=O)C(=O)N[C@@H](Cc1c[nH]c2ccccc12)C(=O)N[C@@H](CC(C)C)C(=O)N[C@@H](CC(C)C)C(=O)N[C@@H](C)C(=O)N[C@@H](CCC(N)=O)C(=O)N[C@@H](CCCCN)C(N)=O)C(C)C` [AT165, [hGIP(3-30)NH2[H18K]-C16/18+y-aminobuturic acid]] (H-EGTFISDYSIAMDKIK([GABA-Palmitoyl])QQDFVNWLLAQK-NH2; N-terminus assumed) was tested, and the “Fold change from GIP(3-30)NH2 (increase in potency)” value (human GIP receptor [1]) was 2.9 fold.
In the case of `CC[C@H](C)[C@H](NC(=O)[C@H](CO)NC(=O)[C@H](Cc1ccc(O)cc1)NC(=O)[C@H](CC(=O)O)NC(=O)[C@H](CO)NC(=O)[C@@H](NC(=O)[C@H](Cc1ccccc1)NC(=O)[C@@H](N)[C@@H](C)O)[C@@H](C)CC)C(=O)N[C@@H](C)C(=O)N[C@@H](CCSC)C(=O)N[C@@H](CC(=O)O)C(=O)N[C@@H](CCCCN)C(=O)N[C@H](C(=O)N[C@@H](Cc1c[nH]cn1)C(=O)N[C@@H](CCC(N)=O)C(=O)N[C@@H](CCC(N)=O)C(=O)N[C@@H](CC(=O)O)C(=O)N[C@@H](Cc1ccccc1)C(=O)N[C@H](C(=O)N[C@@H](CC(N)=O)C(=O)N[C@@H](Cc1c[nH]c2ccccc12)C(=O)N[C@@H](CC(C)C)C(=O)N[C@@H](CC(C)C)C(=O)N[C@@H](C)C(=O)N[C@@H](CCC(N)=O)C(=O)N[C@@H](CCCCN)C(N)=O)C(C)C)[C@@H](C)CC` [hGIP(5-30)NH2, reference compound], the IC50 (human GIP receptor [1]; cAMP accumulation IC50 (nM), antagonism of GIP-mediated cAMP response, COS-7 cells) is reported as 27.5 nM, the IC50 (human GIP receptor [1]; cAMP antagonism nM (IC50, antagonistic potency), transiently transfected COS-7 cells, Table 1 and text) is reported as 28 nM and the “Binding (+/−HSA) Fold” value (human GIP receptor [3]; fold change +HSA/−HSA) is reported as 1.0.
`CCCCCCCCCCCCCCCC(=O)NCCCC[C@H](NC(=O)[C@H](CC(=O)O)NC(=O)[C@H](CCSC)NC(=O)[C@H](C)NC(=O)[C@@H](NC(=O)[C@H](CO)NC(=O)[C@H](Cc1ccc(O)cc1)NC(=O)[C@H](CC(=O)O)NC(=O)[C@H](CO)NC(=O)[C@@H](NC(=O)[C@H](Cc1ccccc1)NC(=O)[C@@H](NC(=O)CNC(=O)[C@@H](N)CCC(=O)O)[C@@H](C)O)[C@@H](C)CC)[C@@H](C)CC)C(=O)N[C@H](C(=O)N[C@@H](Cc1c[nH]cn1)C(=O)N[C@@H](CCC(N)=O)C(=O)N[C@@H](CCC(N)=O)C(=O)N[C@@H](CC(=O)O)C(=O)N[C@@H](Cc1ccccc1)C(=O)N[C@H](C(=O)N[C@@H](CC(N)=O)C(=O)N[C@@H](Cc1c[nH]c2ccccc12)C(=O)N[C@@H](CC(C)C)C(=O)N[C@@H](CC(C)C)C(=O)N[C@@H](C)C(=O)N[C@@H](CCC(N)=O)C(=O)N[C@@H](CCCCN)C(N)=O)C(C)C)[C@@H](C)CC` [AT105, [hGIP(3-30)NH2—C16/16]] gave an Emax (human GIP receptor [2]) of 34%, an IC50 (human GIP receptor [3]; Table 3b, initial data, read-out: Binding IC50) of 522 nM and an IC50 (human GIP receptor [3]; [4]) of 522 nM.
`CCCCCCCCCCCC(=O)N[C@@H](CCC(=O)O)C(=O)NCC(=O)N[C@H](C(=O)N[C@@H](Cc1ccccc1)C(=O)N[C@H](C(=O)N[C@@H](CO)C(=O)N[C@@H](CC(=O)O)C(=O)N[C@@H](Cc1ccc(O)cc1)C(=O)N[C@@H](CO)C(=O)N[C@H](C(=O)N[C@@H](C)C(=O)N[C@@H](CCSC)C(=O)N[C@@H](CC(=O)O)C(=O)N[C@@H](CCCCN)C(=O)N[C@H](C(=O)N[C@@H](Cc1c[nH]cn1)C(=O)N[C@@H](CCC(N)=O)C(=O)N[C@@H](CCC(N)=O)C(=O)N[C@@H](CC(=O)O)C(=O)N[C@@H](Cc1ccccc1)C(=O)N[C@H](C(=O)N[C@@H](CC(N)=O)C(=O)N[C@@H](Cc1c[nH]c2ccccc12)C(=O)N[C@@H](CC(C)C)C(=O)N[C@@H](CC(C)C)C(=O)N[C@@H](C)C(=O)N[C@@H](CCC(N)=O)C(=O)N[C@@H](CCCCN)C(N)=O)C(C)C)[C@@H](C)CC)[C@@H](C)CC)[C@@H](C)CC)[C@@H](C)O` [AT148, [hGIP(3-30)NH2—C12/3]] gave an Emax (human GIP receptor [2]) of 43%, an EC50 (human GIP receptor [2]; read-out: cAMP agonism nM (EC50)) of 13 nM and an IC50 (human GIP receptor [3]; [4]) of 24 nM.
For `CCCCCCCCCCCCCC(=O)N[C@@H](CCC(=O)O)C(=O)NCC(=O)N[C@H](C(=O)N[C@@H](Cc1ccccc1)C(=O)N[C@H](C(=O)N[C@@H](CO)C(=O)N[C@@H](CC(=O)O)C(=O)N[C@@H](Cc1ccc(O)cc1)C(=O)N[C@@H](CO)C(=O)N[C@H](C(=O)N[C@@H](C)C(=O)N[C@@H](CCSC)C(=O)N[C@@H](CC(=O)O)C(=O)N[C@@H](CCCCN)C(=O)N[C@H](C(=O)N[C@@H](Cc1c[nH]cn1)C(=O)N[C@@H](CCC(N)=O)C(=O)N[C@@H](CCC(N)=O)C(=O)N[C@@H](CC(=O)O)C(=O)N[C@@H](Cc1ccccc1)C(=O)N[C@H](C(=O)N[C@@H](CC(N)=O)C(=O)N[C@@H](Cc1c[nH]c2ccccc12)C(=O)N[C@@H](CC(C)C)C(=O)N[C@@H](CC(C)C)C(=O)N[C@@H](C)C(=O)N[C@@H](CCC(N)=O)C(=O)N[C@@H](CCCCN)C(N)=O)C(C)C)[C@@H](C)CC)[C@@H](C)CC)[C@@H](C)CC)[C@@H](C)O` [AT110, [hGIP(3-30)NH2—C14/3]], the Emax (human GIP receptor [2]) was 64% and the “Binding fold (paired)” value (human GIP receptor [3]; fold decrease in affinity compared to GIP(3-30)NH2, Table 3b) was 5.2 fold.
For `CCCCCCCCCCCC(=O)NCCCC[C@H](NC(=O)[C@H](CC(=O)O)NC(=O)[C@H](CCSC)NC(=O)[C@H](C)NC(=O)[C@@H](NC(=O)[C@H](CO)NC(=O)[C@H](Cc1ccc(O)cc1)NC(=O)[C@H](CC(=O)O)NC(=O)[C@H](CO)NC(=O)[C@@H](NC(=O)[C@H](Cc1ccccc1)NC(=O)[C@@H](NC(=O)CNC(=O)[C@@H](N)CCC(=O)O)[C@@H](C)O)[C@@H](C)CC)[C@@H](C)CC)C(=O)N[C@H](C(=O)N[C@@H](Cc1c[nH]cn1)C(=O)N[C@@H](CCC(N)=O)C(=O)N[C@@H](CCC(N)=O)C(=O)N[C@@H](CC(=O)O)C(=O)N[C@@H](Cc1ccccc1)C(=O)N[C@H](C(=O)N[C@@H](CC(N)=O)C(=O)N[C@@H](Cc1c[nH]c2ccccc12)C(=O)N[C@@H](CC(C)C)C(=O)N[C@@H](CC(C)C)C(=O)N[C@@H](C)C(=O)N[C@@H](CCC(N)=O)C(=O)N[C@@H](CCCCN)C(N)=O)C(C)C)[C@@H](C)CC` [AT154, [hGIP(3-30)NH2—C12/16]], the “cAMP agonism Emax” value (human GIP receptor [2]; intrinsic cAMP activity) was 0% and the IC50 (human GIP receptor [3]; [4]) was 27 nM.
